Assays:
Test in all cases: differential drug sensitivity score (dDSS) relative to sarcoma reference cohort mean DSS (DSS units (0-100 scale difference)); higher = more selective sensitivity than reference sarcomas
Conditions in all cases: exposure time: 72 h; concentration range: 10-10000 nM
CDS-ZH003 = system: CDS-ZH003 (patient-derived CIC-DUX4 sarcoma tumoroid)
Description: (§1)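 Drug response profiling of patient-derived Ewing sarcoma and CIC::DUX4 sarcoma tumoroid models (or cells tested directly after isolation from the tumor, 'direct'). The DSS is the normalised AUC (0-100); dDSS is the sample DSS minus the mean DSS of a 34-sarcoma reference cohort profiled in the same lab.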

CDS-ZH001-2 = system: CDS-ZH001-2 (patient-derived CIC-DUX4 sarcoma tumoroid)
Description: as §1

CDS-ZH001 = system: CDS-ZH001 (patient-derived CIC-DUX4 sarcoma tumoroid)
Description: as §1

ES-ZH004 = system: ES-ZH004 (patient-derived Ewing sarcoma tumoroid)
Description: as §1

ES-ZH001 = system: ES-ZH001 (patient-derived Ewing sarcoma tumoroid)
Description: as §1

CDS-ZH002 direct = system: CDS-ZH002 direct (CIC-DUX4 sarcoma cells right after isolation)
Description: as §1

ES-ZH009 = system: ES-ZH009 (patient-derived Ewing sarcoma tumoroid)
Description: as §1

ES-ZH007 = system: ES-ZH007 (patient-derived Ewing sarcoma tumoroid)
Description: as §1

ES-ZH008 = system: ES-ZH008 (patient-derived Ewing sarcoma tumoroid)
Description: as §1

ES-ZH016 = system: ES-ZH016 (patient-derived Ewing sarcoma tumoroid)
Description: as §1

CDS-ZH002 = system: CDS-ZH002 (patient-derived CIC-DUX4 sarcoma tumoroid)
Description: as §1

ES-ZH002 = system: ES-ZH002 (patient-derived Ewing sarcoma tumoroid)
Description: as §1

ES-ZH016 direct = system: ES-ZH016 direct (Ewing sarcoma cells right after isolation)
Description: as §1

Structure (SMILES) | differential drug sensitivity score (CDS-ZH003) | differential drug sensitivity score (CDS-ZH001-2) | differential drug sensitivity score (CDS-ZH001) | differential drug sensitivity score (ES-ZH004) | differential drug sensitivity score (ES-ZH001) | differential drug sensitivity score (CDS-ZH002 direct) | differential drug sensitivity score (ES-ZH009) | differential drug sensitivity score (ES-ZH007) | differential drug sensitivity score (ES-ZH008) | differential drug sensitivity score (ES-ZH016) | differential drug sensitivity score (CDS-ZH002) | differential drug sensitivity score (ES-ZH002) | differential drug sensitivity score (ES-ZH016 direct)
COc1cccc2c1C(=O)c1c(O)c3c(c(O)c1C2=O)C[C@@](O)(C(C)=O)C[C@@H]3O[C@H]1C[C@H](N)[C@H](O)[C@H](C)O1 [Daunorubicin] | 0.8 | 13.2 | 4.9 | -4.5 | 9.1 | 2.7 | 12.6 | -5.2 | 3.2 | 12.2 | 2.8 | 21.7 | 12.9
CCC[C@H](NC(=O)/C(C#N)=C/c1cccc(Br)n1)c1ccccc1 [Degrasyn] | 0.7 | -1.4 | -1.4 | -1.1 | -1.4 | -1.4 | -1.4 | -1.4 | 0.7 | -0.8 | -1.1 | 4.8 | -0.2
COc1cc(Nc2c(C#N)cnc3cc(OCCCN4CCN(C)CC4)c(OC)cc23)c(Cl)cc1Cl [Bosutinib] | -0.4 | 1.8 | 0.6 | -0.5 | -0.5 | -0.5 | 0.5 | -0.5 | -0.5 | 1.1 | 0.1 | -0.5 | 0.2
Nc1cccc2c1CN(C1CCC(=O)NC1=O)C2=O (stereo not given) [Lenalidomide] | -1.2 | -1.2 | -1.2 | 7.7 | 0.4 | -1.2 | -1.2 | -1.2 | 7.4 | -1.2 | -1.2 | 1.8 | -1.2
Cc1ccc2nc(NCCN)c3ncc(C)n3c2c1 | -1.9 | 4.2 | 3 | -2.3 | 1.4 | 2.2 | 1.8 | 1.4 | -1.3 | 3.7 | 1 | 3.8 | 0.5
COc1cc2nccc(Oc3ccc(NC(=O)NC4CC4)c(Cl)c3)c2cc1C(N)=O [Lenvatinib] | -2.4 | -2.4 | -2.4 | 0.5 | 3.9 | -2.4 | -2.4 | -1.2 | 5 | -2.4 | -2.4 | 5.8 | -2.4
CNC(=O)Nc1ccc2c(c1)CC[C@@]21OC(=O)N(CC(=O)N(Cc2ccc(F)cc2)[C@@H](C)C(F)(F)F)C1=O [A-485] | 22.3 | -2.1 | 8.4 | -3.4 | 4.6 | 6.8 | 2.6 | 2.9 | 1.4 | -4 | 6.8 | 5.2 | -5.4
C[C@H]1Oc2cc(cnc2N)-c2c(nn(C)c2C#N)CN(C)C(=O)c2ccc(F)cc21 [Lorlatinib] | 1.5 | 6.9 | 11.6 | -4.3 | -1.4 | 4.2 | -2.4 | -0.9 | -3.5 | 1.2 | -1.4 | 5.9 | -1.1
C[C@@H]1COCCN1c1cc(-c2ccnn2C)c2ccnc(-c3ccn[nH]3)c2n1 [Elimusertib] | 7.8 | 11.3 | 7.3 | 9.6 | 7 | -5.1 | 10.9 | 10.1 | 11.6 | 6.4 | 0.9 | 10.8 | 12.4
CN(C)C(=O)c1cc2cnc(Nc3ccc(N4CCNCC4)cn3)nc2n1C1CCCC1 [Ribociclib] | -0.8 | -2.1 | -2.1 | 4.2 | 2.6 | -2 | 1.9 | 4.1 | 3.5 | 0.4 | -2.3 | 8 | -3
CC(C)C[C@H](NC(=O)[C@@H](NC(=O)c1cccc(-c2ccccc2)n1)[C@@H](C)O)B(O)O [Delanzomib] | 1.1 | 4.9 | 5.4 | 2.1 | 7.9 | 6.7 | 5.8 | 5.7 | 5.7 | 0 | 1.2 | 9.6 | 2.4
CCN(c1cc(C#CCN2CCOCC2)cc(C(=O)NCc2c(C)cc(C)[nH]c2=O)c1C)[C@H]1CC[C@H](N(C)CCOC)CC1 | -1.4 | -0.9 | -1.4 | -1.4 | 3.1 | -1.2 | -1.4 | -1.4 | 0.2 | -1.4 | -0.7 | 2.8 | -1.4
NC(=O)Nc1cc(-c2cccc(F)c2)sc1C(=O)N[C@H]1CCCNC1 [AZD7762] | -3.8 | 0 | 6.3 | -2.9 | 7.4 | -1 | 8.8 | 8.8 | 8.1 | 4.7 | -0.5 | 7.1 | 10.6
Cn1cc(-c2cnn3c(N)c(Br)c([C@@H]4CCCNC4)nc23)cn1 [MK-8776] | -6.8 | 7.1 | 4.4 | -2.9 | 4.7 | 1.1 | 6.8 | 1.8 | 8.5 | -1.8 | -1.5 | 8.9 | 6.3
FC(F)(F)c1ccc(CNc2ccc(Cc3c[nH]c4ncc(Cl)cc34)cn2)cn1 [Pexidartinib] | -1.3 | 0.5 | -1.5 | 0 | -1.5 | 5.7 | -0.8 | -1.5 | -0.7 | 0.7 | -1.5 | -1.3 | 3.5

Source: the supplement of paper PMC12370961
